Test results reported in patent US3974168A, “Tricycle substituted acetones” (Yoshitomi Pharmaceutical Industries, Ltd., priority 1973, dated 1976).

Tests used:
[1] = system: Ultraviolet Erythema; test: Ultraviolet Erythema Method (anti-inflammatory action); format: in vivo; details: guinea pigs, 2 hours after irradiation, half dose 1 hour before and after
Method: ii. Ultraviolet Erythema Method
Using guinea pigs weighing 250-450 g, a rubber plate with 3 holes of 7 mm in diameter was fitted to the abdomen, hair of which had been removed in advance, and light was given by a mercury lamp (300 W) at the distance of 15 cm for 150 seconds. Two hours later the degree of erythema formation was marked according to the method of Winder et al. (Arch. Intern. Pharmacodyn., 116, 261 (1958)) and the efficacy rate was calculated, based on the criterion that 1.5 or less of total marks be effective. Half amount of the test solution was orally given 1 hour before and after the irradiation.

[2] = system: Carrageenin Edema; test: Carrageenin Edema Method (anti-inflammatory action); format: in vivo, Donryu-strain male rats; details: carrageenin paw edema, rats, 2 hours after phlogogen
Method: i. Carrageenin Edema Method
According to the method of Winter et al. (Proc. Soc. Exptl. Biol. Med., 111, 544 (1962)), to one group of five Donryu-strain male rats each weighing about 130 g a test solution containing a test compound was administered orally. One hour later 0.05 ml of 1% carrageenin solution as a phlogogenic substance was subcutaneously injected to the paw of the hind leg. And 2 hours after the administration of phlogogen the bulk of the paw was measured in order to obtain the increment percentage over that before administration. The ratio of bulk increment between a control group and a test group was calculated as inhibition percentage.

[3] = system: stretch symptoms induced by o-phenyl-p-benzoquinone; test: Phenylquinone Method (analgesic action); format: in vivo, dd-strain male mice; details: mice, stretch symptoms over 30 minutes
Method: Analgesic Action (Phenylquinone Method)
According to the method of Hendershot et al. (J. Pharmacol. Exptl. Therap., 125, 237 (1957)), to one group of six dd-strain male mice each weighing about 20 g a test solution containing a test compound was orally administered and 1 hour later 0.2 ml/20 g of body weight of 0.02% o-phenyl-p-benzoquinone solution was intraperitoneally injected. The frequency of stretch symptoms thus induced was measured for 30 minutes, and compared with that of a control group, and the inhibition percentage (effect) was calculated. Results: Carrageenin Edema Method Compound Dose (mg/kg) p.o. % inhibition ______________________________________ A 5 50 25 68 B 10 36 25 61 C 25 32 50 63 ______________________________________

SMILES	Animals with score of 1.5 or less / Total animals ([1]; 100 mg/kg p.o.)	Animals with score of 1.5 or less / Total animals ([1]; 250 mg/kg p.o.)	% inhibition ([2]; 10 mg/kg p.o.) [%]	% inhibition ([2]; 25 mg/kg p.o.) [%]	% inhibition ([3]; 0.5 mg/kg p.o.) [%]	% inhibition ([3]; 1 mg/kg p.o.) [%]	Animals with score of 1.5 or less / Total animals ([1]; 1 mg/kg p.o.)	Animals with score of 1.5 or less / Total animals ([1]; 5 mg/kg p.o.)	% inhibition ([2]; 50 mg/kg p.o.) [%]	% inhibition ([3]; 25 mg/kg p.o.) [%]	% inhibition ([3]; 50 mg/kg p.o.) [%]	Animals with score of 1.5 or less / Total animals ([1]; 2.5 mg/kg p.o.)	% inhibition ([2]; 5 mg/kg p.o.) [%]	% inhibition ([3]; 5 mg/kg p.o.) [%]	% inhibition ([3]; 10 mg/kg p.o.) [%]
CC(=O)C(C)c1ccc2c(c1)Cc1ccc(C)nc1O2 (stereo not drawn) [B, 3-(2-methyl-5H-[1]benzopyrano[2,3-b]pyridin-7-yl)-2-butanone]	2/5	4/5	36	61	24.0	63.4	–	–	–	–	–	–	–	–	–
CCC(=O)C(C)c1ccc2c(c1)Cc1cccnc1O2 (stereo not drawn) [C, 2-(5h-[1]benzopyrano[2,3-b]pyridin-7-yl)-3-pentanone]	–	–	–	32	–	–	2/5	3/5	63	41.6	75.2	–	–	–	–
CC(=O)C(C)c1ccc2c(c1)Cc1cccnc1O2 (stereo not drawn) [A, 3-(5h-[1]benzopyrano[2,3-b]pyridin-7-yl)-2-butanone]	–	–	–	68	–	–	3/10	–	–	–	–	6/10	50	48.7	73.5
